Key:
[1] = tested on: cutaneous squamous cell carcinoma (cuSCC) cell lines; assay: Glycolysis of cuSCC cell lines; type: cell-based
CTGF = assay: Expression of ΔNp63 target gene CTGF; type: cell-based
Description: (§1) Sensitive lines downregulate CYR61 and CTGF in response to both pramlintide and direct siRNA-mediated knockdown of ΔNp63 showing that pramlintide mediated degradation of ΔNp63 affects target gene expression. Resistant lines upregulate CYR61 and CTGF in response to both pramlintide and direct siRNA-mediate knockdown of ΔNp63.
(§2) Here, is shown that deletion of the AN isoforms of p63 or p73 leads to metabolic reprogramming and regression of p53 deficient tumors (FIG. 1). […] When investigated further it was shown that pramlintide suppresses 4Np63 expression (FIG. 4). […] These findings were validated across the sensitive cell lines Colo16 and RDEB2 and the resistant cell lines SCCIC1 and SRB12 for pramlintide (symlin) administration and regulation by ΔNp63 showing reduced levels for CYR61 and CTGF in the sensitive lines and no effect or increases in resistant lines (FIG. 6). A similar observation was also made with the F-box protein FBXO16. […] Looking at additional cell types, ΔNp63 was expressed in sensitive cells but not resistant cells (FIG. 9). To see if the regulation pattern for CYR61, CTGF, and FBXO16 was maintained in HNSCC cell lines, the expression level for each was measured in SQ20B and FaDu cells with and without the application of pramlintide (symlin) (FIG. 10). As for the Sensitive cuSCC lines, the sensitive HNSCC lines upregulate FBXO16 and downregulate CYR61 and CTGF in response to both pramlintide showing that pramlintide mediated degradation of ΔNp63 affects target gene expression. Thus, target genes cay be used as a biomarker of responsiveness to pramlintide. We next investigated the effect of pramlintide (symlin) on ΔNp63 expression levels in SQ20B (FIG. 11) and FaDu (FIG. 12) cell lines.

ΔNp63 = ΔNp63 expression / protein levels (western blots); type: cell-based; conditions: for ΔNp63 protein expression: western blot
Description: as §2
(§3) In fact, it was observed that both pramlintide and HDACi treatment reduces ΔNp63 in H1975 lung adenocarcinoma (LUAD) cells (FIG. 15). […] To investigate what effects panobinostat has on the glycolytic rate of HCC95 and H1975 cells, glycolysis was measured by ECAR showing in both […] glycolysis was decreased with treatment (FIG. 17).

tumors = conditions: in-vivo; prior published studies; FIG. 20; cited from earlier work
[2] = tested on: H1975 lung adenocarcinoma cells; assay: Glycolytic rate measured by ECAR; type: cell-based; conditions: FIG. 17
Description: (§4) Glycolysis as measured by ECAR in HCC95 lung SCC and H1975 lung adenocarcinoma cells are decreased by pramlintide.
as §3

HCC95 lung SCC cells = assay: Glycolytic rate measured by ECAR; type: cell-based; conditions: FIG. 17
Description: as §4, §3

HCC95 cells = assay: Cell proliferation and survival (cell cycle arrest, annexin V apoptosis); type: cell-based; conditions: FIG. 16
Description: (§5) Cell cycle arrest and apoptosis are increased by pramlintide and HDACi in HCC95 lung SCC and H1975 lung adenocarcinoma cell lines.
as §3

H1975 cells = assay: as above; type: cell-based; conditions: FIG. 16
Description: as §5, §3

SRB12 cells = assay: Radiation treatment with and without pramlintide; type: cell-based; conditions: pramlintide at the IC40, FIG. 21
Description: During the experiments it was observed that Pramlintide induces ROS in in-vivo in tumors (FIG. 20). To investigate whether because of its effect on ROS pramlintide would have a synergistic effect on radiation sensitivity, SRB12 cells were treated with radiation with and without the presence of pramlintide. […] Accordingly, in one aspect, disclosed herein are methods of increasing the sensitivity of a cancer (such as for example, cutaneous squamous cell carcinoma (cuSCC) or lung cancer or any cancer comprising a p53, p63, or p73 mutation or aberrant expression thereof) in a subject to radiation therapy comprising administering to the subject an agent that inhibits ΔNp63 and/or ΔNp73. In one aspect the agent that inhibits ΔNp63 and/or ΔNp73 comprises an inhibitor of glycolysis (such as, for example, an amylin analog including but not limited to pramlintide).

RDEB2 = assay: Sensitivity of cuSCC cell line to pramlintide (inhibition curve); type: cell-based
SRB12 = assay: as above; type: cell-based
Description: (§6) Glycolysis, as measured by Extracellular Acidification Rate (Seahorse), is diminished by pramlintide administration (10 micromolar) in the sensitive SQ20B and FaDu Head and Neck SCC lines. […]
as §2

Colo16 = assay: as above; type: cell-based
Description: as §6, §2

SCCIC1 = assay: as above; type: cell-based
Description: as §6, §2

FBXO16 = assay: Expression of ΔNp63 target gene FBXO16; type: cell-based
Description: Sensitive lines upregulate FBXO16 in response to both pramlintide and direct siRNA-mediate knockdown of ΔNp63 showing that pramlintide mediated degradation of ΔNp63 affects target gene expression. Thus target genes may be used as a biomarker of responsiveness to pramlintide. Resistant lines downregulate FBXO16 in response to both pramlintide and direct siRNA-mediate knockdown of ΔNp63 showing that pramlintide mediated degradation of ΔNp63 affects target gene expression.
as §2

[3] = tested on: spontaneous UV-driven cutaneous squamous cell carcinoma (cuSCC); assay: Tumor regression in spontaneous UV-driven cuSCC model; type: in vivo; conditions: FIG. 3
Description: as §2

[4] = tested on: FaDu Head and Neck SCC line; assay: Glycolysis measured by Extracellular Acidification Rate (Seahorse); type: cell-based; conditions: 10 micromolar; sensitive FaDu HNSCC line; FIG. 2D
Description: as §6

[5] = tested on: SQ20B Head and Neck SCC line; assay: as above; type: cell-based; conditions: 10 micromolar; sensitive SQ20B HNSCC line; FIG. 2D
Description: as §6

[6] = tested on: p53 deficient lung cancers; assay: Tumor regression in p53 deficient tumors; type: in vivo
Description: as §2

[7] = tested on: p53 deficient thymic lymphomas; assay: Tumor regression in p53 deficient tumors; type: in vivo
Description: as §2

CYR61 = assay: Expression of ΔNp63 target gene CYR61; type: cell-based
Description: as §1, §2

[8] = resistant cuSCC lines (SCCIC1, SRB12), FIG. 6
[9] = sensitive HNSCC lines (SQ20B, FaDu), FIG. 10
[10] = sensitive cuSCC lines (Colo16, RDEB2), FIG. 6

CC[C@H](C)[C@H](NC(=O)[C@@H]1CCCN1C(=O)CNC(=O)[C@H](Cc1ccccc1)NC(=O)[C@H](CC(N)=O)NC(=O)[C@H](CC(N)=O)NC(=O)[C@H](CO)NC(=O)[C@H](CO)NC(=O)[C@H](Cc1c[nH]cn1)NC(=O)[C@@H](NC(=O)[C@H](CC(C)C)NC(=O)[C@H](Cc1ccccc1)NC(=O)[C@H](CC(N)=O)NC(=O)[C@H](C)NC(=O)[C@H](CC(C)C)NC(=O)[C@H](CCCNC(=N)N)NC(=O)[C@H](CCC(N)=O)NC(=O)[C@@H](NC(=O)[C@H](C)NC(=O)[C@@H]1CSSC[C@H](NC(=O)[C@@H](N)CCCCN)C(=O)N[C@@H](CC(N)=O)C(=O)N[C@@H]([C@@H](C)O)C(=O)N[C@@H](C)C(=O)N[C@@H]([C@@H](C)O)C(=O)N1)[C@@H](C)O)C(C)C)C(=O)N[C@@H](CC(C)C)C(=O)N1CCC[C@H]1C(=O)N1CCC[C@H]1C(=O)N[C@H](C(=O)N[C@@H](CC(N)=O)C(=O)N[C@H](C(=O)NCC(=O)N[C@@H](CO)C(=O)N[C@@H](CC(N)=O)C(=O)N[C@H](C(=O)N[C@@H](Cc1ccc(O)cc1)C(N)=O)[C@@H](C)O)C(C)C)[C@@H](C)O [pramlintide]
Glycolysis ([1]; resistant cuSCC lines, FIG. 2A, 2C): do not exhibit this decrease in glycolysis
Glycolysis ([1]; sensitive cells, FIGS. 2A-2D): suppresses glycolysis
CTGF expression (CTGF; [8]): upregulate
CTGF expression (CTGF; [9]): downregulate
CTGF expression (CTGF; [10]): downregulate
ΔNp63 expression (ΔNp63; FIG. 4, cell line not stated): suppresses ΔNp63 expression
Dependence of ΔNp63 suppression on Fbxw7 expression (ΔNp63; FIG. 13): needs to be present
ΔNp63 protein expression (ΔNp63; FaDu, FIG. 12): decreased protein expression
ΔNp63 protein levels (ΔNp63; H1975 LUAD cells, FIG. 15): reduce ΔNp63
ΔNp63 protein levels (ΔNp63; LUSC HCC95 cells, FIG. 14): reduces ΔNp63 protein levels
ΔNp63 protein expression (ΔNp63; SQ20B, FIG. 11): decreased protein expression
ROS in tumors (tumors): induces ROS
Glycolysis (ECAR) [2]: decreased
Glycolysis (ECAR) (HCC95 lung SCC cells): decreased
Apoptosis (annexin V staining) (HCC95 cells; HCC95): increased apoptosis
Proliferation (HCC95 cells; HCC95 cells): reduced proliferation
Cell cycle arrest (HCC95 cells; HCC95 lung SCC): increased
Apoptosis (annexin V staining) (H1975 cells; H1975): increased apoptosis
Proliferation (H1975 cells; H1975 cells): reduced proliferation
Cell cycle arrest (H1975 cells; H1975 lung adenocarcinoma): increased
Sensitivity to radiation treatment (SRB12 cells): more sensitive to radiation treatment
Sensitivity to pramlintide (RDEB2): sensitive
Sensitivity to pramlintide (SRB12): resistant
Sensitivity to pramlintide (Colo16): sensitive
Sensitivity to pramlintide (SCCIC1): resistant
FBXO16 expression (FBXO16; resistant cuSCC lines, FIG. 8): downregulate
FBXO16 expression (FBXO16; [9]): upregulate
FBXO16 expression (FBXO16; sensitive cuSCC lines, FIG. 8): upregulate
Tumor regression [3]: induces tumor regression
Glycolysis (Extracellular Acidification Rate) [4]: diminished
Glycolysis (Extracellular Acidification Rate) [5]: diminished
Tumor regression [6]: rapid tumor regression
Tumor regression [7]: rapid tumor regression
CYR61 expression (CYR61; [8]): upregulate
CYR61 expression (CYR61; [9]): downregulate
CYR61 expression (CYR61; [10]): downregulate

Source: patent US20230008508A1, “COMBINATION THERAPIES FOR THE TREATMENT OF CANCER” (H. LEE MOFFITT CANCER CENTER AND RESEARCH INSTITUTE, INC., priority 2019, published 2023)
